Data published in US7723467B2, “Antimicrobial compounds” (New England Medical Center Hospitals, Inc., priority 2000, dated 2010).
Like-named read-outs stand apart in the source and are kept apart here. Non-standard residues stand in square brackets, D forms with d. No end group written: not given here.

Columns and labels:
Type in all cases: cell-based
[1] = tested on: Staphylococcus aureus NCTC 4163
Description: (§1) The assays are standardized by using a predictable predetermined number of cells, and the lowest observed concentration of the agent that inhibits growth is defined as the minimum inhibitory concentration (MIC).
(§2) Antimicrobial activity, specifically antibacterial activity, was assayed using cells of each of Staphylococcus aureus NCTC 4163, Escherichia coli NCTC 8196, Pseudomonas aeruginosa NCTC 6749, Proteus vulgaris NCTC 4635, and Enterococcus faecalis ATCC 19212. To determine the minimum inhibitory concentration (MIC), the microdilution broth method, well-known to one of ordinary skill in the art of microbiology, was used. Cells of each bacterial strain were collected in the logarithmic phase of growth, and resuspended in nutrient broth. The concentration of colony-forming units (CFU) per milliliter was quantified by measuring absorption of light at 600 nm (A600).
(§3) Peptide samples were dissolved in nutrient broth (pH 7.0) and diluted serially. The sample solution (100 μl) was mixed with the diluted bacterial suspension (100 μl). Mixtures containing 105 bacterial CFU, and from 1% to 0.003% of test peptides, were incubated for 24 h at 37° C. […] The indolicidin antibacterial property with cells of S. aureus was used as a positive control reference.

[2] = tested on: Escherichia coli NCTC 8196
Description: as §1, §2, §3

[3] = tested on: Enterococcus faecalis ATCC 19212
Description: as §1, §2, §3

[4] = tested on: Proteus vulgaris NCTC 4635
Description: as §1, §2, §3

[5] = tested on: Pseudomonas aeruginosa NCTC 6749
Description: as §1, §2, §3

[6] = tested on: Candida albicans NCTC 10231
Description: Anti-fungal activity is similarly assayed, using log phase vegetative fungal cells.
(§4) Antifungal activity was assayed using Candida albicans NCTC 10231 as a target fungus. Candida cells in the logarithmic phase of growth were suspended in dextrose broth medium at a density of 10^5 CFU/ml. A mixture of the sample solution (100 μl) and the fungal suspension (100 μl) was incubated for 24 h at 37° C.

[7] = tested on: microorganisms tested; test: Antimicrobial activity across the microorganisms tested; settings: compared with SP
Description: as §2, §3, §4

[8] = tested on: microorganism; test: Mixing experiments of SP with SP antagonist
[9] = 100% inhibition of growth, 24 h at 37° C., nutrient broth pH 7.0
[10] = dextrose broth, 24 h at 37° C., turbidity

Row | Substance | Minimal Inhibitory Concentration MIC (%) S. aureus [1, 9] [%] | Minimal Inhibitory Concentration MIC (%) E. coli [2, 9] [%] | Minimal Inhibitory Concentration MIC (%) E. faecalis [3, 9] [%] | Minimal Inhibitory Concentration MIC (%) P. vulgaris [4, 9] [%] | Minimal Inhibitory Concentration MIC (%) P. aeruginosa [5, 9] [%] | potency against C. albicans relative to SP or bradykinin [6] | activity compared with indolicidin ([6]; cells of C. albicans) | Minimal Inhibitory Concentration MIC (%) C. albicans [6, 10] [%] | MIC fold higher (weaker potency) on the other bacteria tested [7] | antimicrobial potency compared with indolicidin ([1]; cells of S. aureus) | antifungal properties against C. albicans [6] | blocking of the antimicrobial effect by the presence of SP antagonist [8] | Minimal Inhibitory Concentration MIC (%) S. aureus ([1]; NCTC 4163, 24 h, pH 7) [%] | Minimal Inhibitory Concentration MIC (%) E. coli ([2]; NCTC 8196, 24 h, pH 7) [%] | Minimal Inhibitory Concentration MIC (%) E. faecalis ([3]; ATCC 19212, 24 h, pH 7) [%] | Minimal Inhibitory Concentration MIC (%) P. vulgaris ([4]; NCTC 4635, 24 h, pH 7) [%] | Minimal Inhibitory Concentration MIC (%) P. aeruginosa ([5]; NCTC 6749, 24 h, pH 7) [%] | Minimal Inhibitory Concentration MIC (%) C. albicans ([6]; NCTC 10231, 24 h) [%]
1 | Arg-D-Pro-Lys-Pro-Gln-Gln-D-Trp-Phe-D-Trp-Leu-MetNH2 (R[dP]KPQQ[dW]F[dW]LM-NH2; N-terminus assumed; SMILES CSCC[C@H](NC(=O)[C@H](CC(C)C)NC(=O)[C@@H](Cc1c[nH]c2ccccc12)NC(=O)[C@H](Cc1ccccc1)NC(=O)[C@@H](Cc1c[nH]c2ccccc12)NC(=O)[C@H](CCC(N)=O)NC(=O)[C@H](CCC(N)=O)NC(=O)[C@@H]1CCCN1C(=O)[C@H](CCCCN)NC(=O)[C@H]1CCCN1C(=O)[C@@H](N)CCCNC(=N)N)C(N)=O; listed as Homo sapiens) [SEQ ID NO: 2] | 0.13 | 0.13 | 0.13 | 0.13 | 0.13 | approximately 10 times | comparable to that of indolicidin | 0.03 | 10- to 20 fold |  |  |  |  |  |  |  |  | 
2 | Arg-Pro-Lys-Pro-Gln-Gln-Phe-Phe-Gly-Leu-MetNH2 [SEQ ID NO: 1] | 0.007 | 0.06 | 0.13 | 0.13 | 0.13 |  |  | 0.25 |  | equally potent to indolicidin | found to have antifungal properties | not to be blocked |  |  |  |  |  | 
3 | Ile-Leu-Pro-Trp-Lys-Trp-Pro-Trp-Trp-Pro-Trp-Arg-Arg-NH2 (ILPWKWPWWPWRR-NH2; listed as Homo sapiens) [Indolicidin, reference compound] | 0.003 | 0.007 |  |  |  |  |  | 0.015 |  |  |  |  |  |  |  |  |  | 
4 | RPPGFSPFR [Bradykinin, reference compound] |  |  |  |  |  |  |  |  |  |  |  |  | 0.5 | 0.5 | >1 | 0.5 | 1.0 | 0.25
